# Data: PubChem BioAssay (NCI)
#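 The compound was tested at five concentrations on cells cultured in 96-well plates, with a 48-hour exposure period. The concentration for full growth arrest is given as TGI.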
# Tested on: SK-MEL-2 melanoma
# Assay: growth of human tumour cells (NCI), 48 h
row,Structure (SMILES),TGI
1,CN(C)C(=N)c1ccccc1,> 100 µM
2,O=CC[C@H]1C(=O)C[C@@H]2CCC[C@@H]21,> 100 µM
3,O=[N+]([O-])C(=C1NCCN1)/C(Cl)=C(\Cl)Br,> 100 µM
4,COc1cc(/C=C/C(=N\NS(=O)(=O)c2ccc(C)cc2)c2sc(NNC(C)=O)nc2C)ccc1O,> 100 µM
5,Clc1cc(OC2C3CC4CC(C3)CC2C4)nc(Cl)n1 (centres undefined),25.8 µM
6,CC(=O)NNc1nc(C)c(C(=O)NNC(=O)C(=O)Nc2c(Cl)cc([N+](=O)[O-])cc2Cl)s1,> 100 µM
7,CC(C)CC(=O)OC[n+]1ccc(-c2c(COC(=O)NC(C)C)c(COC(=O)NC(C)C)c3n2CCC3)cc1,> 100 µM

# Tested on: MDA-MB-435
# Assay: growth of human tumour cells (NCI), 48 h
row,Structure (SMILES),TGI
1,O=[N+]([O-])C(=C1NCCN1)/C(Cl)=C(\Cl)Br,> 63.2 µM
2,COc1cc(/C=C/C(=N\NS(=O)(=O)c2ccc(C)cc2)c2sc(NNC(C)=O)nc2C)ccc1O,> 100 µM
3,Clc1cc(OC2C3CC4CC(C3)CC2C4)nc(Cl)n1 (centres undefined),37.9 µM
4,CC(C)CC(=O)OC[n+]1ccc(-c2c(COC(=O)NC(C)C)c(COC(=O)NC(C)C)c3n2CCC3)cc1,> 100 µM

# Tested on: SNB-19 CNS
# Assay: growth of human tumour cells (NCI), 48 h
row,Structure (SMILES),TGI
1,CN(C)C(=N)c1ccccc1,> 100 µM
2,O=CC[C@H]1C(=O)C[C@@H]2CCC[C@@H]21,> 100 µM
3,O=[N+]([O-])C(=C1NCCN1)/C(Cl)=C(\Cl)Br,> 100 µM
4,COc1cc(/C=C/C(=N\NS(=O)(=O)c2ccc(C)cc2)c2sc(NNC(C)=O)nc2C)ccc1O,> 100 µM
5,Clc1cc(OC2C3CC4CC(C3)CC2C4)nc(Cl)n1 (centres undefined),> 100 µM
6,CC(=O)NNc1nc(C)c(C(=O)NNC(=O)C(=O)Nc2c(Cl)cc([N+](=O)[O-])cc2Cl)s1,> 100 µM
7,CC(C)CC(=O)OC[n+]1ccc(-c2c(COC(=O)NC(C)C)c(COC(=O)NC(C)C)c3n2CCC3)cc1,> 100 µM

# Tested on: BT-549 breast
# Assay: growth of human tumour cells (NCI), 48 h
row,Structure (SMILES),TGI
1,O=[N+]([O-])C(=C1NCCN1)/C(Cl)=C(\Cl)Br,> 96 µM
2,COc1cc(/C=C/C(=N\NS(=O)(=O)c2ccc(C)cc2)c2sc(NNC(C)=O)nc2C)ccc1O,> 100 µM
3,Clc1cc(OC2C3CC4CC(C3)CC2C4)nc(Cl)n1 (centres undefined),52.4 µM
4,CC(C)CC(=O)OC[n+]1ccc(-c2c(COC(=O)NC(C)C)c(COC(=O)NC(C)C)c3n2CCC3)cc1,> 100 µM

# Tested on: CAKI-1 renal
# Assay: growth of human tumour cells (NCI), 48 h
row,Structure (SMILES),TGI
1,CN(C)C(=N)c1ccccc1,> 100 µM
2,O=CC[C@H]1C(=O)C[C@@H]2CCC[C@@H]21,> 100 µM
3,O=[N+]([O-])C(=C1NCCN1)/C(Cl)=C(\Cl)Br,30 µM
4,COc1cc(/C=C/C(=N\NS(=O)(=O)c2ccc(C)cc2)c2sc(NNC(C)=O)nc2C)ccc1O,> 100 µM
5,CC(C)CC(=O)OC[n+]1ccc(-c2c(COC(=O)NC(C)C)c(COC(=O)NC(C)C)c3n2CCC3)cc1,> 100 µM

# Tested on: DMS 273 small cell lung
# Assay: growth of human tumour cells (NCI), 48 h
row,Structure (SMILES),TGI
1,CN(C)C(=N)c1ccccc1,> 100 µM
2,CC(=O)NNc1nc(C)c(C(=O)NNC(=O)C(=O)Nc2c(Cl)cc([N+](=O)[O-])cc2Cl)s1,> 100 µM

# Tested on: PC-3 prostate
# Assay: growth of human tumour cells (NCI), 48 h
row,Structure (SMILES),TGI
1,O=[N+]([O-])C(=C1NCCN1)/C(Cl)=C(\Cl)Br,> 100 µM
2,COc1cc(/C=C/C(=N\NS(=O)(=O)c2ccc(C)cc2)c2sc(NNC(C)=O)nc2C)ccc1O,> 100 µM
3,Clc1cc(OC2C3CC4CC(C3)CC2C4)nc(Cl)n1 (centres undefined),37.9 µM
4,CC(C)CC(=O)OC[n+]1ccc(-c2c(COC(=O)NC(C)C)c(COC(=O)NC(C)C)c3n2CCC3)cc1,> 100 µM

# Tested on: NCI/ADR-RES ovarian
# Assay: growth of human tumour cells (NCI), 48 h
row,Structure (SMILES),TGI
1,O=[N+]([O-])C(=C1NCCN1)/C(Cl)=C(\Cl)Br,> 100 µM
2,COc1cc(/C=C/C(=N\NS(=O)(=O)c2ccc(C)cc2)c2sc(NNC(C)=O)nc2C)ccc1O,> 100 µM
3,Clc1cc(OC2C3CC4CC(C3)CC2C4)nc(Cl)n1 (centres undefined),88.5 µM
4,CC(C)CC(=O)OC[n+]1ccc(-c2c(COC(=O)NC(C)C)c(COC(=O)NC(C)C)c3n2CCC3)cc1,> 100 µM

# Tested on: RPMI-8226 leukemia
# Assay: growth of human tumour cells (NCI), 48 h
row,Structure (SMILES),TGI
1,O=CC[C@H]1C(=O)C[C@@H]2CCC[C@@H]21,> 100 µM
2,O=[N+]([O-])C(=C1NCCN1)/C(Cl)=C(\Cl)Br,62.4 µM
3,COc1cc(/C=C/C(=N\NS(=O)(=O)c2ccc(C)cc2)c2sc(NNC(C)=O)nc2C)ccc1O,> 100 µM
4,Clc1cc(OC2C3CC4CC(C3)CC2C4)nc(Cl)n1 (centres undefined),43 µM
5,CC(=O)NNc1nc(C)c(C(=O)NNC(=O)C(=O)Nc2c(Cl)cc([N+](=O)[O-])cc2Cl)s1,> 100 µM
6,CC(C)CC(=O)OC[n+]1ccc(-c2c(COC(=O)NC(C)C)c(COC(=O)NC(C)C)c3n2CCC3)cc1,> 100 µM

# Tested on: HS 578T breast
# Assay: growth of human tumour cells (NCI), 48 h
row,Structure (SMILES),TGI
1,O=[N+]([O-])C(=C1NCCN1)/C(Cl)=C(\Cl)Br,> 100 µM
2,COc1cc(/C=C/C(=N\NS(=O)(=O)c2ccc(C)cc2)c2sc(NNC(C)=O)nc2C)ccc1O,> 100 µM
3,Clc1cc(OC2C3CC4CC(C3)CC2C4)nc(Cl)n1 (centres undefined),42.9 µM
4,CC(C)CC(=O)OC[n+]1ccc(-c2c(COC(=O)NC(C)C)c(COC(=O)NC(C)C)c3n2CCC3)cc1,> 100 µM

# Tested on: M19-MEL melanoma
# Assay: growth of human tumour cells (NCI), 48 h
row,Structure (SMILES),TGI
1,CN(C)C(=N)c1ccccc1,> 100 µM
2,O=CC[C@H]1C(=O)C[C@@H]2CCC[C@@H]21,> 100 µM
3,CC(=O)NNc1nc(C)c(C(=O)NNC(=O)C(=O)Nc2c(Cl)cc([N+](=O)[O-])cc2Cl)s1,> 100 µM

# Tested on: HOP-62 NSCLC
# Assay: growth of human tumour cells (NCI), 48 h
row,Structure (SMILES),TGI
1,CN(C)C(=N)c1ccccc1,> 100 µM
2,O=CC[C@H]1C(=O)C[C@@H]2CCC[C@@H]21,> 100 µM
3,O=[N+]([O-])C(=C1NCCN1)/C(Cl)=C(\Cl)Br,> 100 µM
4,COc1cc(/C=C/C(=N\NS(=O)(=O)c2ccc(C)cc2)c2sc(NNC(C)=O)nc2C)ccc1O,> 100 µM
5,Clc1cc(OC2C3CC4CC(C3)CC2C4)nc(Cl)n1 (centres undefined),67.1 µM
6,CC(=O)NNc1nc(C)c(C(=O)NNC(=O)C(=O)Nc2c(Cl)cc([N+](=O)[O-])cc2Cl)s1,> 100 µM
7,CC(C)CC(=O)OC[n+]1ccc(-c2c(COC(=O)NC(C)C)c(COC(=O)NC(C)C)c3n2CCC3)cc1,> 100 µM

# Tested on: NCI-H226 lung
# Assay: growth of human tumour cells (NCI), 48 h
row,Structure (SMILES),TGI
1,CN(C)C(=N)c1ccccc1,> 100 µM
2,O=CC[C@H]1C(=O)C[C@@H]2CCC[C@@H]21,> 100 µM
3,O=[N+]([O-])C(=C1NCCN1)/C(Cl)=C(\Cl)Br,> 100 µM
4,COc1cc(/C=C/C(=N\NS(=O)(=O)c2ccc(C)cc2)c2sc(NNC(C)=O)nc2C)ccc1O,> 100 µM
5,CC(=O)NNc1nc(C)c(C(=O)NNC(=O)C(=O)Nc2c(Cl)cc([N+](=O)[O-])cc2Cl)s1,82.6 µM
6,CC(C)CC(=O)OC[n+]1ccc(-c2c(COC(=O)NC(C)C)c(COC(=O)NC(C)C)c3n2CCC3)cc1,> 100 µM

# Tested on: MALME-3M melanoma
# Assay: growth of human tumour cells (NCI), 48 h
row,Structure (SMILES),TGI
1,CN(C)C(=N)c1ccccc1,> 100 µM
2,O=CC[C@H]1C(=O)C[C@@H]2CCC[C@@H]21,> 100 µM
3,O=[N+]([O-])C(=C1NCCN1)/C(Cl)=C(\Cl)Br,> 61.7 µM
4,COc1cc(/C=C/C(=N\NS(=O)(=O)c2ccc(C)cc2)c2sc(NNC(C)=O)nc2C)ccc1O,> 100 µM
5,Clc1cc(OC2C3CC4CC(C3)CC2C4)nc(Cl)n1 (centres undefined),30.1 µM
6,CC(=O)NNc1nc(C)c(C(=O)NNC(=O)C(=O)Nc2c(Cl)cc([N+](=O)[O-])cc2Cl)s1,> 100 µM
7,CC(C)CC(=O)OC[n+]1ccc(-c2c(COC(=O)NC(C)C)c(COC(=O)NC(C)C)c3n2CCC3)cc1,> 100 µM

# Tested on: COLO 205 colon
# Assay: growth of human tumour cells (NCI), 48 h
row,Structure (SMILES),TGI
1,CN(C)C(=N)c1ccccc1,> 100 µM
2,O=CC[C@H]1C(=O)C[C@@H]2CCC[C@@H]21,> 100 µM
3,O=[N+]([O-])C(=C1NCCN1)/C(Cl)=C(\Cl)Br,42.6 µM
4,COc1cc(/C=C/C(=N\NS(=O)(=O)c2ccc(C)cc2)c2sc(NNC(C)=O)nc2C)ccc1O,> 100 µM
5,Clc1cc(OC2C3CC4CC(C3)CC2C4)nc(Cl)n1 (centres undefined),34.2 µM
6,CC(=O)NNc1nc(C)c(C(=O)NNC(=O)C(=O)Nc2c(Cl)cc([N+](=O)[O-])cc2Cl)s1,> 100 µM
7,CC(C)CC(=O)OC[n+]1ccc(-c2c(COC(=O)NC(C)C)c(COC(=O)NC(C)C)c3n2CCC3)cc1,> 100 µM

# Tested on: LXFL 529 NSCLC
# Assay: growth of human tumour cells (NCI), 48 h
row,Structure (SMILES),TGI
1,CN(C)C(=N)c1ccccc1,> 100 µM
2,O=CC[C@H]1C(=O)C[C@@H]2CCC[C@@H]21,> 100 µM
3,CC(=O)NNc1nc(C)c(C(=O)NNC(=O)C(=O)Nc2c(Cl)cc([N+](=O)[O-])cc2Cl)s1,> 100 µM

# Tested on: OVCAR-8 ovarian
# Assay: growth of human tumour cells (NCI), 48 h
row,Structure (SMILES),TGI
1,CN(C)C(=N)c1ccccc1,> 100 µM
2,O=CC[C@H]1C(=O)C[C@@H]2CCC[C@@H]21,> 100 µM
3,O=[N+]([O-])C(=C1NCCN1)/C(Cl)=C(\Cl)Br,> 100 µM
4,COc1cc(/C=C/C(=N\NS(=O)(=O)c2ccc(C)cc2)c2sc(NNC(C)=O)nc2C)ccc1O,> 100 µM
5,Clc1cc(OC2C3CC4CC(C3)CC2C4)nc(Cl)n1 (centres undefined),61.6 µM
6,CC(=O)NNc1nc(C)c(C(=O)NNC(=O)C(=O)Nc2c(Cl)cc([N+](=O)[O-])cc2Cl)s1,> 100 µM
7,CC(C)CC(=O)OC[n+]1ccc(-c2c(COC(=O)NC(C)C)c(COC(=O)NC(C)C)c3n2CCC3)cc1,> 100 µM

# Tested on: SK-MEL-5 melanoma
# Assay: growth of human tumour cells (NCI), 48 h
row,Structure (SMILES),TGI
1,O=CC[C@H]1C(=O)C[C@@H]2CCC[C@@H]21,> 100 µM
2,O=[N+]([O-])C(=C1NCCN1)/C(Cl)=C(\Cl)Br,> 100 µM
3,COc1cc(/C=C/C(=N\NS(=O)(=O)c2ccc(C)cc2)c2sc(NNC(C)=O)nc2C)ccc1O,> 100 µM
4,Clc1cc(OC2C3CC4CC(C3)CC2C4)nc(Cl)n1 (centres undefined),32.1 µM
5,CC(=O)NNc1nc(C)c(C(=O)NNC(=O)C(=O)Nc2c(Cl)cc([N+](=O)[O-])cc2Cl)s1,> 100 µM
6,CC(C)CC(=O)OC[n+]1ccc(-c2c(COC(=O)NC(C)C)c(COC(=O)NC(C)C)c3n2CCC3)cc1,> 100 µM

# Tested on: NCI-H522 lung
# Assay: growth of human tumour cells (NCI), 48 h
row,Structure (SMILES),TGI
1,CN(C)C(=N)c1ccccc1,> 100 µM
